Read-outs that look alike come from different tables or passages of the source. Each block holds one molecule with its values, some of them ahead of it.
Legend:
501Mel cells (parental) [1] = test: Dose-response curves and IC50, PrestoBlue cell viability, 72 h; settings: read-out: Half-maximal inhibitory concentration (IC50)
A375 cells (parental) [2] = test: as above; format: cell-based, human; settings: read-out: Half-maximal inhibitory concentration value (IC50), Mean
[3] = system: IGR37-GP cells (Dabrafenib-resistant); test: as above; settings: read-out: Half-maximal inhibitory concentration (IC50)
[4] = system: A375-XP cells (Vemurafenib-resistant); test: as above; format: cell-based, human; settings: n.e. = did not suppress growth below 50% in the tested concentration range, read-out: Half-maximal inhibitory concentration value (IC50), Mean
IGR37 cells (parental) [5] = test: as above; settings: read-out: Half-maximal inhibitory concentration (IC50)
[6] = system: IGR37-XP cells (Vemurafenib-resistant); test: as above; settings: read-out: Half-maximal inhibitory concentration (IC50)
[7] = system: 501Mel-XP cells (Vemurafenib-resistant); test: as above; settings: read-out: Half-maximal inhibitory concentration (IC50)
[8] = system: A375-GP cells (Dabrafenib-resistant); test: as above; format: cell-based, human; settings: n.e. = did not suppress growth below 50% in the tested concentration range, read-out: Half-maximal inhibitory concentration value (IC50), Mean
[9] = system: 501Mel-GP cells (Dabrafenib-resistant); test: as above; settings: read-out: Half-maximal inhibitory concentration (IC50)
[10] = system: IGR37-GP cells (Dabrafenib-resistant); test: Kinase inhibitor library screening, PrestoBlue cell viability, 1 or 10 μM, 72 h; settings: IGR37 GP, in %
[11] = system: IGR37-XP cells (Vemurafenib-resistant); test: as above; settings: IGR37 XP, in %
IGR37 cells (parental) [12] = test: as above; settings: IGR37 Parental, in %
[13] = system: 501Mel-XP cells (Vemurafenib-resistant); test: as above; settings: 501Mel XP, in %
[14] = system: 501Mel-GP cells (Dabrafenib-resistant); test: as above; settings: 501Mel GP, in %
A375 cells (parental) [15] = test: as above; settings: A375 Parental, in %
[16] = system: A375-GP cells (Dabrafenib-resistant); test: as above; settings: A375 GP, in %
501Mel cells (parental) [17] = test: as above; settings: 501Mel Parental, in %
Summary of the method: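 Readout: PrestoBlue signal on a monochromator plate reader, given as percent viability relative to untreated controls. Parental and drug-resistant (Vemurafenib XP, Dabrafenib GP) sublines were tested; at least duplicates per line.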

[18] = system: A375-XP cells (Vemurafenib-resistant); test: as above; settings: A375 XP, in %
A375 cells = test: Synergy determination with the Chou-Talalay method (CompuSyn), cell viability 72 h; format: cell-based, human; settings: 72 h cell viability, Chou-Talalay / Synergyfinder
Experimental: The Chou-Talalay method to determine possible synergistic effects of selected kinase inhibitor combinations was used as described in [19]. […] Cells were treated with either single inhibitors or combinations thereof at indicated amounts in technical triplicates. The amounts were pre-determined from each inhibitor’s IC50 value and inhibitors were assayed in a defined dilution series and at constant ratio when combined. […] Combination Index (CI) values showing either synergy (< 1) or antagonism (> 1) were calculated with the CompuSyn software (ComboSyn, Inc).

[19] = Homo sapiens, A-375, n.e. = did not suppress growth below 50% in the tested concentration range

Compound: NC1(c2ccc(-c3nc4ccn5c(=O)[nH]nc5c4cc3-c3ccccc3)cc2)CCC1 [MK-2206]
IC50 (501Mel cells (parental) [1]; Homo sapiens, 72 h): 4.55 µM
IC50 (A375 cells (parental) [2]; [19]): 7.8 µM
IC50 ([3]; Homo sapiens, 72 h): 4.73 µM
IC50 ([4]; Homo sapiens): 3.38 µM
IC50 (IGR37 cells (parental) [5]; Homo sapiens, IGR-37, 72 h): 4.75 µM
IC50 ([6]; Homo sapiens, 72 h): 5.08 µM
IC50 ([7]; Homo sapiens, 72 h): 2.23 µM
IC50 ([8]; Homo sapiens): 6.43 µM
IC50 ([9]; Homo sapiens, 72 h): 4.36 µM

Compound: Cc1ccc(C(=O)Nc2ccc(CN3CCN(C)CC3)c(C(F)(F)F)c2)cc1C#Cc1cnc2cccnn12 [Ponatinib]
IC50 (501Mel cells (parental) [1]; Homo sapiens, 72 h): 1.17 µM
IC50 (A375 cells (parental) [2]; [19]): 0.628 µM
IC50 ([3]; Homo sapiens, 72 h): 1.35 µM
IC50 ([4]; Homo sapiens): 0.177 µM
IC50 (IGR37 cells (parental) [5]; Homo sapiens, IGR-37, 72 h): 1.07 µM
IC50 ([6]; Homo sapiens, 72 h): 1.43 µM
synergistic effects with the BRAF inhibitors Vemurafenib and/or Dabrafenib (in words) (A375 cells): did not act synergistically
IC50 ([7]; Homo sapiens, 72 h): 1.34 µM
IC50 ([8]; Homo sapiens): 0.226 µM
IC50 ([9]; Homo sapiens, 72 h): 1.4 µM

Compound: COc1cc(OC)c(/C=C/S(=O)(=O)Cc2ccc(OC)c(NCC(=O)O)c2)c(OC)c1 [Rigosertib]
IC50 (501Mel cells (parental) [1]; Homo sapiens, 72 h): 0.08 µM
IC50 (A375 cells (parental) [2]; [19]): 0.064 µM
IC50 ([3]; Homo sapiens, 72 h): 0.09 µM
IC50 ([4]; Homo sapiens): 0.059 µM
IC50 (IGR37 cells (parental) [5]; Homo sapiens, IGR-37, 72 h): 0.103 µM
IC50 ([6]; Homo sapiens, 72 h): 0.121 µM
synergistic effects with the BRAF inhibitors Vemurafenib and/or Dabrafenib (in words) (A375 cells): did not act synergistically
IC50 ([7]; Homo sapiens, 72 h): 0.063 µM
IC50 ([8]; Homo sapiens): 0.05 µM
IC50 ([9]; Homo sapiens, 72 h): 0.07 µM

Continued, in another order:

IC50 [4]: 3.2 µM
IC50 [8]: 1.91 µM
Compound: Cc1ccc(C(=O)Nc2cccc(C(F)(F)F)c2)cc1Nc1nc(-c2cccnc2)nc2c1cnn2C [NVP-BHG712, reference compound]
cell viability (kinase inhibitor library screening) ([10]; 1μΜ): 97.4
cell viability (kinase inhibitor library screening) ([10]; 10μΜ): 51.2
cell viability (kinase inhibitor library screening) ([11]; 1μΜ): 103.3
cell viability (kinase inhibitor library screening) ([11]; 10μΜ): 17.6
cell viability (kinase inhibitor library screening) (IGR37 cells (parental) [12]; 1μΜ): 107.5
cell viability (kinase inhibitor library screening) (IGR37 cells (parental) [12]; 10μΜ): 83.5
cell viability (kinase inhibitor library screening) ([13]; 1μΜ): 121.0
cell viability (kinase inhibitor library screening) ([13]; 10μΜ): 2.2
cell viability (kinase inhibitor library screening) ([14]; 1μΜ): 107.1
cell viability (kinase inhibitor library screening) ([14]; 10μΜ): 25.6
cell viability (kinase inhibitor library screening) (A375 cells (parental) [15]; 1μΜ): 103.3
cell viability (kinase inhibitor library screening) (A375 cells (parental) [15]; 10μΜ): 63.1
cell viability (kinase inhibitor library screening) ([16]; 1μΜ): 80.6
cell viability (kinase inhibitor library screening) ([16]; 10μΜ): 37.1
cell viability (kinase inhibitor library screening) (501Mel cells (parental) [17]; 1μΜ): 103.2
cell viability (kinase inhibitor library screening) (501Mel cells (parental) [17]; 10μΜ): 27.8
cell viability (kinase inhibitor library screening) ([18]; 1μΜ): 84.7
cell viability (kinase inhibitor library screening) ([18]; 10μΜ): 29.1
IC50 (501Mel cells (parental) [1]; 501Mel parental, 72 h cell viability): 4.48 µM
IC50 (A375 cells (parental) [2]; n.e. = did not suppress growth below 50% in the tested concentration range): 4.42 µM
IC50 ([3]; IGR37-GP (Dabrafenib-resistant), 72 h cell viability): 7.02 µM
IC50 (IGR37 cells (parental) [5]; IGR37 parental, 72 h cell viability): 5.78 µM
IC50 ([6]; IGR37-XP (Vemurafenib-resistant), 72 h cell viability): 5.95 µM
IC50 ([7]; 501Mel-XP (Vemurafenib-resistant), 72 h cell viability): 3.82 µM
IC50 ([9]; 501Mel-GP (Dabrafenib-resistant), 72 h cell viability): 4.88 µM

IC50 ([4]; Homo sapiens): 4.54 µM
IC50 ([8]; Homo sapiens): 2.5 µM
Compound: CNC(=O)c1cc(Oc2ccc(NC(=O)Nc3ccc(Cl)c(C(F)(F)F)c3)cc2)ccn1 [Sorafenib]
IC50 (501Mel cells (parental) [1]; Homo sapiens, 72 h): 7.04 µM
IC50 (A375 cells (parental) [2]; [19]): 5.11 µM
IC50 ([3]; Homo sapiens, 72 h): 9.52 µM
IC50 (IGR37 cells (parental) [5]; Homo sapiens, IGR-37, 72 h): 7.31 µM
IC50 ([6]; Homo sapiens, 72 h): 10 µM
IC50 ([7]; Homo sapiens, 72 h): 5.43 µM
IC50 ([9]; Homo sapiens, 72 h): 6.94 µM

IC50 ([4]; Homo sapiens): 5.21 µM
IC50 ([8]; Homo sapiens): 5.34 µM
Compound: O=C(O)c1ccc2c(c1)nc(Nc1cccc(Cl)c1)c1ccncc12 [cx-4945]
IC50 (501Mel cells (parental) [1]; Homo sapiens, 72 h): 7.17 µM
IC50 (A375 cells (parental) [2]; [19]): 5.62 µM
IC50 ([3]; Homo sapiens, 72 h): 9.09 µM
IC50 (IGR37 cells (parental) [5]; Homo sapiens, IGR-37, 72 h): 6.66 µM
IC50 ([6]; Homo sapiens, 72 h): 6.1 µM
IC50 ([7]; Homo sapiens, 72 h): 4.65 µM
IC50 ([9]; Homo sapiens, 72 h): 4.94 µM

Reference: publication PMC6364417, “Kinase inhibitor library screening identifies synergistic drug combinations effective in sensitive and resistant melanoma cells” (Journal of Experimental & Clinical Cancer Research : CR, 2019)
